Test results from ChEMBL document CHEMBL1201862, “PubChem BioAssay data set” (2004).
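48-hour exposure; five concentrations; linearly interpolated endpoints. The concentration for 50% growth inhibition is given as GI50.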 The source made the active and inactive calls. Cut-off read from the data, not from the text of the source: active = GI50 up to about 1.1 µM and inactive = higher.

Legend:
Experiment in all cases: inhibition of tumour cell growth, NCI panel, 48 h
UO-31 = tested on: UO-31
HCC 2998 = tested on: HCC 2998
NCI-H226 = tested on: NCI-H226
SK-MEL-28 = tested on: SK-MEL-28
UACC-62 = tested on: UACC-62
A549 = tested on: A549
SK-MEL-5 = tested on: SK-MEL-5
UACC-257 = tested on: UACC-257
A498 = tested on: A498
KM12 = tested on: KM12
COLO 205 = tested on: COLO 205
CAKI-1 = tested on: CAKI-1
DMS-114 = tested on: DMS-114
HL-60 = tested on: HL-60
HOP-18 = tested on: HOP-18
U-251 = tested on: U-251
M19-MEL = tested on: M19-MEL
SK-OV-3 = tested on: SK-OV-3
SF-268 = tested on: SF-268
RPMI-8226 = tested on: RPMI-8226
K562 = tested on: K562
SK-MEL-2 = tested on: SK-MEL-2
HT-29 = tested on: HT-29
XF498 = tested on: XF498
OVCAR-3 = tested on: OVCAR-3
MOLT-4 = tested on: MOLT-4
SF-539 = tested on: SF-539
OVCAR-4 = tested on: OVCAR-4
EKVX = tested on: EKVX
NCI-H522 = tested on: NCI-H522
CCRF-CEM = tested on: CCRF-CEM
NCI-H23 = tested on: NCI-H23
HOP-92 = tested on: HOP-92
LOX IMVI = tested on: LOX IMVI
TK-10 = tested on: TK-10
LXFL 529 = tested on: LXFL 529
SF-295 = tested on: SF-295
KM-20L2 = tested on: KM-20L2
SNB-78 = tested on: SNB-78
NCI-H460 = tested on: NCI-H460
786-0 = tested on: 786-0
M14 = tested on: M14
HOP-62 = tested on: HOP-62
HCT-15 = tested on: HCT-15
DMS-273 = tested on: DMS-273
ACHN = tested on: ACHN
SNB-19 = tested on: SNB-19
OVCAR-5 = tested on: OVCAR-5
SW-620 = tested on: SW-620
Malme-3M = tested on: Malme-3M
DLD-1 = tested on: DLD-1
IGROV-1 = tested on: IGROV-1
MCF7 = tested on: MCF7
HCT-116 = tested on: HCT-116
SNB-75 = tested on: SNB-75
DU-145 = tested on: DU-145
SN12C = tested on: SN12C
PC-3 = tested on: PC-3
T47D = tested on: T47D
SR = tested on: SR
BT-549 = tested on: BT-549
MDA-MB-231 = tested on: MDA-MB-231
MDA-MB-435 = tested on: MDA-MB-435
NCI/ADR-RES = tested on: NCI/ADR-RES
OVCAR-8 = tested on: OVCAR-8
RXF 393 = tested on: RXF 393
MDA-N = tested on: MDA-N
Hs-578T = tested on: Hs-578T

CC1=CC(C)(C)N=C2SC(c3ccc(Cl)cc3)=NN12
GI50 (UO-31): 19.8 µM (inactive) | GI50 (HCC 2998): 25.6 µM (inactive) | GI50 (NCI-H226): 21.1 µM (inactive) | GI50 (SK-MEL-28): 36.4 µM (inactive) | GI50 (UACC-62): 59.6 µM (inactive) | GI50 (A549): 40 µM (inactive) | GI50 (SK-MEL-5): 15.5 µM (inactive) | GI50 (UACC-257): 29.4 µM (inactive) | GI50 (A498): 25.8 µM (inactive) | GI50 (KM12): 26 µM (inactive) | GI50 (COLO 205): 41.1 µM (inactive) | GI50 (CAKI-1): 27.9 µM (inactive) | GI50 (DMS-114): 23.5 µM (inactive) | GI50 (HL-60): 12.2 µM (inactive) | GI50 (HOP-18): 21 µM (inactive) | GI50 (U-251): 23 µM (inactive) | GI50 (M19-MEL): 32 µM (inactive) | GI50 (SK-OV-3): 46.2 µM (inactive) | GI50 (SF-268): 27.5 µM (inactive) | GI50 (RPMI-8226): 12.1 µM (inactive) | GI50 (K562): 21.4 µM (inactive) | GI50 (SK-MEL-2): 43.6 µM (inactive) | GI50 (HT-29): 12 µM (inactive) | GI50 (XF498): 14.2 µM (inactive) | GI50 (OVCAR-3): 18.1 µM (inactive) | GI50 (MOLT-4): 14.9 µM (inactive) | GI50 (SF-539): 31.6 µM (inactive) | GI50 (OVCAR-4): 26.2 µM (inactive) | GI50 (EKVX): 3.85 µM (inactive) | GI50 (NCI-H522): 15.6 µM (inactive) | GI50 (CCRF-CEM): 28.2 µM (inactive) | GI50 (NCI-H23): 15.5 µM (inactive) | GI50 (HOP-92): 27.4 µM (inactive) | GI50 (LOX IMVI): 40.1 µM (inactive) | GI50 (TK-10): 37 µM (inactive) | GI50 (LXFL 529): 32.4 µM (inactive) | GI50 (SF-295): 31.2 µM (inactive) | GI50 (KM-20L2): 22.5 µM (inactive) | GI50 (SNB-78): 59.2 µM (inactive) | GI50 (NCI-H460): 29.2 µM (inactive) | GI50 (786-0): 15.1 µM (inactive) | GI50 (M14): 30.5 µM (inactive) | GI50 (HOP-62): 54.3 µM (inactive) | GI50 (HCT-15): 25.4 µM | GI50 (DMS-273): 38 µM (inactive) | GI50 (ACHN): 27.9 µM (inactive) | GI50 (SNB-19): 50.1 µM (inactive) | GI50 (OVCAR-5): 17.6 µM (inactive) | GI50 (SW-620): 32.1 µM (inactive) | GI50 (Malme-3M): 24.9 µM (inactive) | GI50 (DLD-1): 19.5 µM (inactive) | GI50 (IGROV-1): > 100 µM (inactive)

Cc1cc(N(CC(C)Br)CC(C)Br)ccc1/N=N/c1ccccc1C(=O)O (centres undefined)
GI50 (MCF7): 0.787 µM (active) | GI50 (UO-31): 5.86 µM (inactive) | GI50 (HCT-116): 4.99 µM (inactive) | GI50 (HCC 2998): 1.15 µM (inactive) | GI50 (NCI-H226): 4.52 µM (inactive) | GI50 (SK-MEL-28): 1.93 µM (inactive) | GI50 (SNB-75): 2.43 µM (inactive) | GI50 (UACC-62): 1.52 µM (inactive) | GI50 (A549): 3.04 µM (inactive) | GI50 (SK-MEL-5): 3.19 µM (inactive) | GI50 (UACC-257): 4.53 µM (inactive) | GI50 (A498): 1.67 µM (inactive) | GI50 (KM12): 13.4 µM (inactive) | GI50 (COLO 205): 5.47 µM (inactive) | GI50 (CAKI-1): 2.49 µM (inactive) | GI50 (DMS-114): 1.22 µM (inactive) | GI50 (HL-60): 6.05 µM (inactive) | GI50 (DU-145): 7.67 µM (inactive) | GI50 (HOP-18): 2.64 µM (inactive) | GI50 (SN12C): 4.72 µM (inactive) | GI50 (PC-3): 12.9 µM (inactive) | GI50 (U-251): 4.8 µM (inactive) | GI50 (T47D): 0.592 µM (active) | GI50 (M19-MEL): 12.2 µM (inactive) | GI50 (SK-OV-3): 13.1 µM (inactive) | GI50 (SF-268): 7.73 µM (inactive) | GI50 (RPMI-8226): 1.75 µM (inactive) | GI50 (K562): 1.03 µM (active) | GI50 (SK-MEL-2): 2.93 µM (inactive) | GI50 (HT-29): 4.85 µM (inactive) | GI50 (XF498): 1.95 µM (inactive) | GI50 (OVCAR-3): 16.9 µM (inactive) | GI50 (SR): 2.62 µM (inactive) | GI50 (BT-549): 11.3 µM (inactive) | GI50 (MOLT-4): 16.9 µM (inactive) | GI50 (SF-539): 1.45 µM (inactive) | GI50 (OVCAR-4): 2.09 µM (inactive) | GI50 (MDA-MB-231): 14.8 µM (inactive) | GI50 (EKVX): 9.12 µM (inactive) | GI50 (MDA-MB-435): 16.3 µM (inactive) | GI50 (NCI-H522): 3.03 µM (inactive) | GI50 (NCI/ADR-RES): 15.2 µM (inactive) | GI50 (CCRF-CEM): 19.6 µM (inactive) | GI50 (NCI-H23): 3.81 µM (inactive) | GI50 (OVCAR-8): 13.2 µM (inactive) | GI50 (HOP-92): 2.24 µM (inactive) | GI50 (LOX IMVI): 7.59 µM (inactive) | GI50 (TK-10): 11.7 µM (inactive) | GI50 (SF-295): 0.948 µM (active) | GI50 (RXF 393): 0.881 µM (active) | GI50 (MDA-N): 4.23 µM (inactive) | GI50 (KM-20L2): 8.75 µM (inactive) | GI50 (SNB-78): 11.1 µM (inactive) | GI50 (NCI-H460): 0.454 µM (active) | GI50 (786-0): 2.77 µM (inactive) | GI50 (M14): 6.04 µM (inactive) | GI50 (Hs-578T): 11.1 µM (inactive) | GI50 (HOP-62): 4.71 µM (inactive) | GI50 (HCT-15): 8.81 µM | GI50 (DMS-273): 4.59 µM (inactive) | GI50 (ACHN): 2.79 µM (inactive) | GI50 (SNB-19): 9.04 µM (inactive) | GI50 (OVCAR-5): 2.74 µM (inactive) | GI50 (SW-620): 20 µM (inactive) | GI50 (Malme-3M): 4.61 µM (inactive) | GI50 (DLD-1): 3.93 µM (inactive) | GI50 (IGROV-1): 11 µM (inactive)
